{
  "source": "patent US20260191900A1",
  "about": "“Biofilm Treatment” (Phytoceutical Limited, priority 2022, published 2026)",
  "key": {"[1]": {"tested_on": "S. aureus (NCTC12493; MRSA)", "experiment": "MIC, broth microdilution", "assay_type": "cell-based, Staphylococcus aureus", "settings": "for MIC: Staphylococcus aureus", "description": "(§1) Staphylococcus aureus (NCTC12493; MRSA) and Pseudomonas aeruginosa (NCTC12903) were stored in Pro-Lab Diagnostics Microbank (Fisher, Basingstoke UK) tubes at −80° C. before streaking onto Nutrient Agar (Oxoid, Basingstoke, UK) and incubated at 37° C., aerobically for 18 hours.\n(§2) Minimum inhibitory concentrations (MICs) were determined using the broth microdilution method (EUCAST, Clinical Microbiology and Infection (2003), 9(8)). The inoculated liquid culture (grown dynamically overnight at 37° C. in MHB) was adjusted to obtain a ~0.1 OD at 600 nm, equivalent to a 0.5 McFarland Standard. A range of concentrations (diluted in MHB) for each of the compounds were prepared in 96-well plates, followed by the addition of the inoculated media. The plates were then incubated statically for 18 hours at 37° C. Following the incubation period, the lowest concentration of compound presenting an inhibition of bacterial growth was labelled the MIC."}, "[2]": {"tested_on": "P. aeruginosa (NCTC12903)", "experiment": "MIC, broth microdilution", "assay_type": "cell-based, Pseudomonas aeruginosa", "settings": "for MIC: Pseudomonas aeruginosa, NCTC12903", "description": "as §1, §2"}, "[3]": {"tested_on": "P. aeruginosa (NCTC12903) biofilm", "experiment": "Crystal violet biofilm clearance assay", "assay_type": "cell-based, Pseudomonas aeruginosa", "settings": "for amount of biofilm present after treatment (CV stain, OD 600 nm): FIG. 2, 0.000625% PHMB, 10% TPGS, 10% EM, 6.25% EtOH, dosed at different days, 24 hours, vs untreated control; for percentage biofilm remaining / amount of biofilm remaining: FIG. 3, 0.1% PHMB, 10% TPGS or both; for percentage biofilm remaining: treated at day 0; for amount of biofilm remaining: treatment at day 1, 2 or 3", "description": "as §1\n(§3) The two strains of bacteria were produced using different media, with no flocculation occurring. S. aureus was produced using Dulbecco's Modified Eagle Medium and took five to seven days to grow a mature biofilm. P. aeruginosa was produced using M9 minimal media and 1% glucose media and took three days to grow a mature biofilm. Alternatively, Luria-Bertani (LB) broth could be used to grow P. aeruginosa.\n(§4) The biofilm growth method and visualisation/analysis techniques were followed from J. Merritt et al. (Curr Protoc Microbiol. (2005); Chapter 1:Unit 1B.1), with modifications. S. aureus (NCTC12493) was grown in DMEM and P. aeruginosa (NCTC12903) was grown in M9 minimal media+1% glucose. Inoculated liquid culture was diluted in 1:100 in their respective medias. Into 96-well plates, 100 μL of the inoculant was added to each well. Following this, the plate was covered with a lid and incubated at 37° C. for 24-hour intervals of up to 7 days, aerobically. The compounds were added and incubated at 37° C. for a further 24 hours. Planktonic bacteria were removed using a pipette, and the biofilms were washed with Milli-Q water. To each well, 125 μL of 0.1% crystal violet (CV) solution was added and left at room temperature for 10-15 minutes. After this, the 0.1% CV solution was removed, and the well was washed until the waste ran clear. The stain was left to air-dry, before 200 μL 30% acetic acid was added to each well for 15 minutes on a plate shaker. To a new 96-well plate, 125 μL stained biofilm solution was transferred and the optical density was read at 600 nm. A comparison was made between the uninhibited biofilm and any biofilm reductions capabilities of the added compounds.\n(§5) The candidate compounds were each, therefore, applied at their respective MIC values.\n(§6) Bacterial growth kinetics of S. aureus grown in DMEM and P. aeruginosa grown in M9 minimal media+1% glucose were determined. The amount of biofilm remaining was determined using the CV staining method as described above."}, "[4]": {"tested_on": "S. aureus (NCTC12493) biofilm", "experiment": "Crystal violet biofilm clearance assay", "assay_type": "cell-based, Staphylococcus aureus", "settings": "for amount of biofilm present after treatment (CV stain, OD 600 nm): FIG. 2, 0.000625% PHMB, 10% TPGS, 10% EM, 6.25% EtOH, dosed at day 0 to 7, 24 hours, vs untreated control; for percentage biofilm remaining / amount of biofilm remaining: FIG. 3, 0.1% PHMB, 10% TPGS or both; for percentage biofilm remaining: treated at day 0; for amount of biofilm remaining: treatment at day 1, 2 or 3", "description": "as §1, §3, §4, §5, §6"}, "[5]": {"experiment": "Ex-vivo skin penetration, Franz diffusion cells, SRS imaging", "assay_type": "in vitro ADME, pig", "description": "Skin penetration studies were performed on dermatomed porcine skin, dosed using vertical Franz diffusion cells.\nA scalpel was used to cut each Franz cell disc into a smaller portion for sectioning, and was sanitised with ethanol between samples. A fresh cryostat blade was used for each sample. The cryostat temperature was set to −33° C., and samples equilibrated in the cryostat for approximately 45 minutes prior to sectioning.\nAfter 24 hours, the skin surface was cleaned and cross-sections 30 μm thick were prepared using cryosectioning and mounted onto glass coverslips. SRS (stimulated raman spectroscopy) imaging was used to observe the penetration of the composition through the skin.\nSRS imaging used a Leica SP8 microscope with SRS and CARS. A PicoEmerald-S laser system output two pulsed 2 ps laser beams (a 1031 nm Stokes beam spatially and temporally overlapped with a tuneable pump beam). The Stokes beam was modulated at 20 MHz and stimulated Raman loss signals were detected in transmission using a lock-in amplifier (UHFLI, Zurich instruments). CARS and SHG/fluorescence signals were epi-detected in separate PMT channels. A water immersion×25 magnification lens (0.95 NA, Leica) was used. A short working distance air condenser (0.9 NA, Leica) was used. Laser power was 30%, which corresponded to approximately 10 mW for the pump beam and 30 mW for the Stokes beam at the sample. […]"}, "Fibroblasts [6]": {"tested_on": "Fibroblasts", "experiment": "Toxicity of retinol to fibroblasts", "assay_type": "cell-based"}, "Fibroblasts [7]": {"tested_on": "Fibroblasts", "experiment": "SRS-SHG microscopy of fibroblasts exposed to retinol", "assay_type": "cell-based", "settings": "0.31 μg/mL or 0.25 μg/mL; days 1, 3 and 7", "description": "Fibroblasts were exposed to compositions containing 0.31 μg/mL or 0.25 μg/mL, and a control sample with no retinol, over a period of 7 days. SRS-SHG microscopy was used to determine absorption of the retinol by the fibroblasts at days 1, 3 and 7 after exposure."}, "[8]": {"tested_on": "P. aeruginosa (NCTC12903)", "experiment": "CFU count after treatment of biofilm", "assay_type": "cell-based, Pseudomonas aeruginosa", "settings": "FIG. 3; 10% TPGS or 0.1% PHMB with 10% TPGS; treated on any day", "description": "(§7) The amount of biofilm remaining was determined using the CV staining method as described above. CFU count was determined by the following method: The inoculated liquid culture (grown dynamically overnight at 37° C. in liquid growth media) was spun down in a centrifuged (at max (13.3) speed for 5 minutes) (reference). The supernatant was removed and resuspend in PBS (1:100 dilution). Into each well, 20 μL of inoculated culture LB broth was added to 180 μL LB broth. […] For the untreated wells, 1 μL of PBS was added. The 96-well plate was placed in a TECAN measuring at OD600 over 24 hours at 15-minute intervals. Resulting growth kinetic experiments were conducted using mid-logarithmically growing cultures. […] Following this, the wells were homogenised, and 20 μL samples were plate spotted onto nutrient agar (NA). These plates were incubated for 18 hours at 37° C. before colonies were counted."}, "S. aureus (NCTC12493)": {"tested_on": "S. aureus (NCTC12493)", "experiment": "CFU count after treatment of biofilm", "assay_type": "cell-based, Staphylococcus aureus", "settings": "FIG. 3; 10% TPGS or 0.1% PHMB with 10% TPGS; treated on any day", "description": "as §7"}, "[9]": {"settings": "concentration before inoculation, 18 hours at 37° C., vehicle ethanol, water or none"}, "[10]": {"settings": "concentration before inoculation, 18 hours at 37° C., vehicle ethanol or water"}, "[11]": {"settings": "vehicle TPGS (curcumin solubilised in TPGS)"}},
  "data": [
    {"compound": "polyhexamethylene biguanide [PHMB]", "values": [
      {"measurement": "concentration inhibiting S. aureus growth (MIC)", "setting": "[1]", "result": 0.000625, "unit": "% v/v"},
      {"measurement": "MIC, S. aureus", "setting": "[1]; [9]", "result": 0.000625, "unit": "w/v %"},
      {"measurement": "concentration inhibiting P. aeruginosa growth (MIC)", "setting": "[2]", "result": 0.005, "unit": "% v/v"},
      {"measurement": "MIC, P. aeruginosa", "setting": "[2]; [9]", "result": 0.005, "unit": "w/v %"},
      {"measurement": "amount of biofilm present after treatment (CV stain, OD 600 nm)", "setting": "[3]", "result": "an increase in biofilm when dosed on T1"},
      {"measurement": "percentage biofilm remaining", "setting": "[3]", "result": "fully reducing the biofilm remaining"},
      {"measurement": "amount of biofilm remaining", "setting": "[3]", "result": "effective"},
      {"measurement": "amount of biofilm present after treatment (CV stain, OD 600 nm)", "setting": "[4]", "result": "good biofilm clearance"},
      {"measurement": "percentage biofilm remaining", "setting": "[4]", "result": "fully reducing the biofilm remaining"},
      {"measurement": "amount of biofilm remaining", "setting": "[4]", "result": "effective"}
    ]},
    {"compound": "Polysorbate 40", "values": [
      {"measurement": "MIC, S. aureus", "setting": "[1]; [9]", "result": ">25", "unit": "% w/v %"},
      {"measurement": "MIC, P. aeruginosa", "setting": "[2]; [9]", "result": ">25", "unit": "% w/v %"}
    ]},
    {"compound": "CC1=C(/C=C/C(C)=C/C=C/C(C)=C/CO)C(C)(C)CCC1", "note": "[Retinol]", "values": [
      {"measurement": "MIC", "setting": "[1]; [10]", "result": 50, "unit": "mg/mL"},
      {"measurement": "MIC, S. aureus", "setting": "[1]; [9]", "result": 5, "unit": "w/v %"},
      {"measurement": "depth through the skin down to which retinol was observed", "setting": "[5]; composition comprising retinol and TPGS applied to pig skin for 24 hours", "result": 60, "unit": "μm"},
      {"measurement": "penetration of the retinol into the skin", "setting": "[5]; similar experiment, composition including PHMB (1 wt %)", "result": "did not show penetration"},
      {"measurement": "MIC", "setting": "[2]; [10]", "result": 50, "unit": "mg/mL"},
      {"measurement": "MIC, P. aeruginosa", "setting": "[2]; [9]", "result": 5, "unit": "w/v %"},
      {"measurement": "concentration not toxic to fibroblasts", "setting": "Fibroblasts [6]", "result": "≤ 6000", "unit": "ng/mL"},
      {"measurement": "response of fibroblasts (SHG signals outside of nuclei)", "setting": "Fibroblasts [7]", "result": "concentration and time dependent response"}
    ]},
    {"compound": "CCO", "note": "[Ethanol]", "values": [
      {"measurement": "MIC, S. aureus", "setting": "[1]; [9]", "result": 6.25, "unit": "w/v %"},
      {"measurement": "MIC, P. aeruginosa", "setting": "[2]; [9]", "result": 6.25, "unit": "w/v %"},
      {"measurement": "amount of biofilm present after treatment (CV stain, OD 600 nm)", "setting": "[3]", "result": "little to no effect"},
      {"measurement": "amount of biofilm present after treatment (CV stain, OD 600 nm)", "setting": "[4]", "result": "at TO there was an increase in biofilm"}
    ]},
    {"compound": "tocopheryl polyethylene glycol succinate [TPGS]", "values": [
      {"measurement": "concentration inhibiting S. aureus growth (MIC)", "setting": "[1]", "result": 10, "unit": "% v/v"},
      {"measurement": "MIC, S. aureus", "setting": "[1]; [10]", "result": "(200) mg/mL"},
      {"measurement": "MIC, S. aureus", "setting": "[1]; [9]", "result": 20, "unit": "w/v %"},
      {"measurement": "CFU count", "setting": "[8]", "result": "remained substantially constant"},
      {"measurement": "concentration inhibiting P. aeruginosa growth (MIC)", "setting": "[2]", "result": 20, "unit": "% v/v"},
      {"measurement": "MIC, P. aeruginosa", "setting": "[2]; [10]", "result": "(200) mg/mL"},
      {"measurement": "MIC, P. aeruginosa", "setting": "[2]; [9]", "result": 20, "unit": "w/v %"},
      {"measurement": "CFU count", "setting": "S. aureus (NCTC12493)", "result": "remained substantially constant"},
      {"measurement": "amount of biofilm present after treatment (CV stain, OD 600 nm)", "setting": "[3]", "result": "the most effective compound"},
      {"measurement": "percentage biofilm remaining", "setting": "[3]", "result": "fully reducing the biofilm remaining"},
      {"measurement": "amount of biofilm remaining", "setting": "[3]", "result": "effective"},
      {"measurement": "amount of biofilm present after treatment (CV stain, OD 600 nm)", "setting": "[4]", "result": "a reduction in the amount of biofilm present"},
      {"measurement": "percentage biofilm remaining", "setting": "[4]", "result": "fully reducing the biofilm remaining"},
      {"measurement": "amount of biofilm remaining", "setting": "[4]", "result": "effective"}
    ]},
    {"compound": "COc1cc(/C=C/C(=O)CC(=O)/C=C/c2ccc(O)c(OC)c2)ccc1O", "note": "[Curcumin]", "values": [
      {"measurement": "MIC", "setting": "[1]; [10]", "result": 2, "unit": "mg/mL"},
      {"measurement": "MIC, S. aureus", "setting": "[1]; [9]", "result": 0.2, "unit": "w/v %"},
      {"measurement": "MIC, S. aureus", "setting": "[1]; [11]", "result": 0.0125, "unit": "w/v %"},
      {"measurement": "MIC", "setting": "[2]; [10]", "result": 2, "unit": "mg/mL"},
      {"measurement": "MIC, P. aeruginosa", "setting": "[2]; [9]", "result": 0.2, "unit": "w/v %"},
      {"measurement": "MIC, P. aeruginosa", "setting": "[2]; [11]", "result": 0.1, "unit": "w/v %"}
    ]}
  ]
}
